The text below walks through data of patent publication US7491794B2, “Macrocyclic compounds as inhibitors of viral replication” (Intermune, Inc., priority 2003, dated 2009).

A word on the IC50: it is the concentration at which inhibition is half-maximal. As usually defined, the EC50 is the midpoint of the concentration-response curve.

The target in one assay is T1, NS3-NS4 protease (Hepatitis C virus genotype 1a, UniProt P27958).
T1 construct: Recombinant E. coli or Baculovirus full-length NS3 was diluted to 3.33 μM with assay buffer; made in house; host or cells: E. coli or baculovirus (BV) system
T1 sequence (P27958 1027-1657): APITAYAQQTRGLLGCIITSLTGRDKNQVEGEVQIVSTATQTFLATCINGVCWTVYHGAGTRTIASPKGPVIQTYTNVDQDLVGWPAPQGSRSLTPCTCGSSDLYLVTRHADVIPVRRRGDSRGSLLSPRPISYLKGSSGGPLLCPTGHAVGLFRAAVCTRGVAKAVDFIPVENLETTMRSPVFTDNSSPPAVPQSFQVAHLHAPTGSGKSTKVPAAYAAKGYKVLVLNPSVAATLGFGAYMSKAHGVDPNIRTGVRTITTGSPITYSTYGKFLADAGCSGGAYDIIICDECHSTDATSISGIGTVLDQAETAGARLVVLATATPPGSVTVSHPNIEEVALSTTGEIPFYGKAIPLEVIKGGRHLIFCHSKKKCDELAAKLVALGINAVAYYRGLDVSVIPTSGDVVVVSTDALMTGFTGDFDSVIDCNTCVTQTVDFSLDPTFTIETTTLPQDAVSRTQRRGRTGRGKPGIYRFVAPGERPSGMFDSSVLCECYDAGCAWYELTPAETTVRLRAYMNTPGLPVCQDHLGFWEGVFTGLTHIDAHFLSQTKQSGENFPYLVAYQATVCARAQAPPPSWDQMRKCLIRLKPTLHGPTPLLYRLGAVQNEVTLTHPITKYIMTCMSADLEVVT
Put plainly: NS3-NS4 protease assay / NS3 inhibition assay, Section C. In kind it is biochemical. The conditions noted are these: read-out: NS3-NS4 IC50. The method in brief:
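Full-length NS3 (E. coli, 2 nM, or Baculovirus, 3 nM, in assay) precomplexed with excess NS4A-2 peptide, pre-incubated with compound 10 minutes at room temperature, then RETS1 substrate added. Fluorescence (ex 335/em 495 nm) read kinetically over 30 minutes; IC50s from four-parameter fit converted to Ki via Ki=IC50/(1+[S]/Km).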

The test system of assay [1] is HCV sub-genomic replicon, GS4.3. Nature of the assay: Quantitation by ELISA of NPTII in the HCV sub-genomic replicon, GS4.3, Section C. In kind it is cell-based. The following applies: Hepatitis C virus; GS4.3 cells, 72 h incubation; read-out: EC50.

On to `CC(C)(C)OC(=O)N[C@H]1CCCCC/C=C\[C@@H]2C[C@@]2(C(=O)NS(=O)(=O)Nc2ccccc2)NC(=O)[C@@H]2C[C@@H](OC(=O)N3Cc4ccccc4C3)CN2C1=O` [Compound 127, (1S,4R,6S,14S,18R)-1,3-Dihydro-isoindole-2-carboxylic acid 14-tert-butoxycarbonylamino-4-(phenylaminosulfonyl-aminocarbonyl)-2,15-dioxo-3,16-diaza-tricyclo[14.3.0.0^4,6]nonadec-7-en-18-yl ester], for which, at NS3-NS4 protease, the IC50 was below 100 nM. Also, the EC50 in assay [1] was below 100 nM.

Take `CN(C)S(=O)(=O)NC(=O)[C@@]12C[C@H]1/C=C\CCCCC[C@H](NC(=O)OC(C)(C)C)C(=O)N1C[C@H](OC(=O)N3CCc4ccccc4C3CN3CCCCC3)C[C@H]1C(=O)N2` (stereo partly drawn) [Compound 107, (1S,4R,6S,14S,18R)-1-Piperidin-1-ylmethyl-3,4-dihydro-1H-isoquinoline-2-carboxylic acid 14-tert-butoxycarbonylamino-2,15-dioxo-4-(N,N-dimethyl-sulfonylaminocarbonyl)-3,16-diaza-tricyclo[14.3.0.0^4,6]nonadec-7-en-18-yl ester]: on NS3-NS4 protease, the IC50 is below 100 nM. Further, in assay [1], the EC50 was below 100 nM.

For the compound `CC(C)(C)OC(=O)N[C@H]1CCCCC/C=C\[C@@H]2C[C@@]2(C(=O)NS(=O)(=O)N(CCC#N)C2CC2)NC(=O)[C@@H]2C[C@@H](OC(=O)N3Cc4ccccc4C3)CN2C1=O` [Compound 125, (1S,4R,6S,14S,18R)-1,3-Dihydro-isoindole-2-carboxylic acid 14-tert-butoxycarbonylamino-4-(2-cyanoethyl(cyclopropyl)aminosulfonyl-aminocarbonyl)-2,15-dioxo-3,16-diaza-tricyclo[14.3.0.0^4,6]nonadec-7-en-18-yl ester], the IC50 at NS3-NS4 protease was below 100 nM. In assay [1], the 50% effective concentration (EC50) was below 100 nM.

In the case of `CC(C)(C)OC(=O)N[C@H]1CCCCC/C=C\[C@@H]2C[C@@]2(C(=O)NS(=O)(=O)NC2CCCCC2)NC(=O)[C@@H]2C[C@@H](OC(=O)N3Cc4ccccc4C3)CN2C1=O` [Compound 135, (1S,4R,6S,14S,18R)-1,3-Dihydro-isoindole-2-carboxylic acid 14-tert-butoxycarbonylamino-4-(cyclohexylaminosulfonyl-aminocarbonyl)-2,15-dioxo-3,16-diaza-tricyclo[14.3.0.0^4,6]nonadec-7-en-18-yl ester], the IC50 at NS3-NS4 protease is below 100 nM. Moreover, in assay [1], the EC50 was below 100 nM.

Consider `CN(C)S(=O)(=O)NC(=O)[C@@]12C[C@H]1/C=C\CCCCC[C@H](NC(=O)OC(C)(C)C)C(=O)N1C[C@H](OC(=O)N3Cc4ccc(Cl)cc4C3)C[C@H]1C(=O)N2` [Compound 113, (1S,4R,6S,14S,18R)-5-Chloro-1,3-Dihydro-isoindole-2-carboxylic acid 14-tert-butoxycarbonylamino-4-(N,N-dimethylsulfonyl-aminocarbonyl)-2,15-dioxo-3,16-diaza-tricyclo[14.3.0.0^4,6]nonadec-7-en-18-yl ester], for which the IC50 on NS3-NS4 protease is below 100 nM. For the same compound, the EC50 in assay [1] was below 100 nM.

Turning to `CC(C)N(C(C)C)S(=O)(=O)NC(=O)[C@@]12C[C@H]1/C=C\CCCCC[C@H](NC(=O)OC(C)(C)C)C(=O)N1C[C@H](OC(=O)N3Cc4ccccc4C3)C[C@H]1C(=O)N2` [Compound 126, (1S,4R,6S,14S,18R)-1,3-Dihydro-isoindole-2-carboxylic acid 14-tert-butoxycarbonylamino-4-(N,N-diisopropylaminosulfonyl-aminocarbonyl)-2,15-dioxo-3,16-diaza-tricyclo[14.3.0.0^4,6]nonadec-7-en-18-yl ester], the IC50 on NS3-NS4 protease is below 100 nM. Further, in assay [1], the EC50 is below 100 nM.
